According to PMC9502836, “Zika Virus Inhibitors Based on a 1,3-Disubstituted 1H-Pyrazolo[3,4-d]pyrimidine-amine Scaffold” (Molecules, 2022):
Like-named read-outs stand apart in the source and are kept apart here.

Legend:
luciferase reporter ZIKV = test: luciferase-based ZIKV reporter assay in Huh7 cells; type: cell-based; conditions: Zika virus; for inhibition at 10 µM: Huh-7, 72 h, read-out: ZIKV Reporter Assay Inhibition (%) at 10 µM
Experimental: (§1) In the current study, we continued to use our previously reported luciferase-based ZIKV reporter assay as a primary antiviral screening, by which newly synthesized compounds were tested (at 10 µM) along with NITD008 (Figure 1, at 1 µM), a flavivirus RNA-dependent RNA polymerase (RdRp) inhibitor, and NSC 12155 (Figure 1, at 10 µM), a flavivirus NS5 methyltransferase (MTase) inhibitor, as reference compounds (Table 1). […] For active compounds (>60% titer-reduction), dose-response experiments were performed to determine EC50 (half maximal effective concentration, a concentration that is needed to cause half of the maximum possible pharmacological effect) and CC50 (half cytotoxic concentration, a concentration that is required to reduce cell viability by 50%) values. For selected compounds, EC50 values in the reporter assay were also measured.
(§2) The ZIKV reporter assay and titer-reduction assay were performed as previously reported. Briefly, Huh7 cells (1.5 × 10^4) were seeded in a 96-well plate and inoculated with a luciferase reporter ZIKV (MOI=0.2). After two hours, the cells were treated with medium containing the compound (10 µM). After 3 days post-infection, the cells were lysed, the Nanoluc signal was detected using the Nano-Glo® luciferase assay (Promega), then measured using a Neo 2 plate reader (BioTek, Winooski, VT, USA). For titer-reduction assays, 1.5 × 10^5 Huh7 cell were seeded in a 24-well plate. Next day, the cells were inoculated with ZIKV for two hours. The inoculum was replaced with compound-containing medium (8.5 µM) and incubated for 3 days. Supernatants were collected and viral titers were estimated by plaque assay.

[1] = Cell viability (CC50) assay, MTS-based; conditions: human; for viability at 3 days, 10 µM: 10 µM compound, Huh7 cells, read-out: ZIKV Reporter Assay Viability (%) at 10 µM
Experimental: as §1
The cell viability assay was performed in Huh7 cells as previously reported. Briefly, non-infected Huh7 cells were treated with the testing compounds for 3 days. Viability was measured by absorbance at […] using the MTS-based tetrazolium reduction CellTiter 96 Aqueous Non-Radioactive cell proliferation assay (Promega).

ZIKV = ZIKV titer reduction assay (plaque assay of supernatants) in Huh7 cells; type: cell-based; conditions: Zika virus; for inhibition at 8.5 µM: Huh-7, 72 h, read-out: Titer Reduction Assay % at 8.5 µM
Experimental: as §1, §2

[2] = non-infected Huh7 cells, 3 days, read-out: CC50
[3] = 8.5 µM compound, Huh7 cells, 3 days
[4] = Huh-7, Huh7 cells, read-out: Titer Reduction Assay EC50

SMILES	inhibition at 10 µM (luciferase reporter ZIKV) [%]	viability at 3 days, 10 µM ([1]; 3 days) [%]	inhibition at 8.5 µM (ZIKV; [3]) [%]	further results
Nc1ncnc2c1c(CNc1ccccc1)cn2Cc1ccc([N+](=O)[O-])cc1 [Compound 4, 7-(4-Nitrobenzyl)-5-((phenylamino)methyl)-7H-pyrrolo[2,3-d]pyrimidin-4-amine]	91	40		
Nc1ncnc2c1c(COc1ccccc1)cn2Cc1ccc([N+](=O)[O-])cc1 [Compound 5, 7-(4-Nitrobenzyl)-5-(phenoxymethyl)-7H-pyrrolo[2,3-d]pyrimidin-4-amine]	62	82	94	CC50 at 3 days [1, 2]: 58 µM; EC50 (ZIKV; [4]): 4.3 µM
Nc1ncnc2c1c(COc1ccccc1)nn2Cc1ccc([N+](=O)[O-])cc1 [Compound 6, 1-(4-Nitrobenzyl)-3-(phenoxymethyl)-1H-pyrazolo[3,4-d]pyrimidin-4-amine]	65	82	65	CC50 at 3 days [1, 2]: 39 µM; EC50 (ZIKV; [4]): 5.1 µM
Nc1ncnc2c1c(COc1ccccc1)nn2Cc1ccccc1 [Compound 7, 1-Benzyl-3-(phenoxymethyl)-1H-pyrazolo[3,4-d]pyrimidin-4-amine]	0	99		
Nc1ncnc2c1c(COc1ccccc1)nn2Cc1ccccc1[N+](=O)[O-] [Compound 8, 1-(2-Nitrobenzyl)-3-(phenoxymethyl)-1H-pyrazolo[3,4-d]pyrimidin-4-amine]	9	103		
Nc1ncnc2c1c(COc1ccccc1)nn2Cc1cccc([N+](=O)[O-])c1 [Compound 9, 1-(3-Nitrobenzyl)-3-(phenoxymethyl)-1H-pyrazolo[3,4-d]pyrimidin-4-amine]	90	37		
Nc1ccccc1Cn1nc(COc2ccccc2)c2c(N)ncnc21 [Compound 10, 1-(2-Aminobenzyl)-3-(phenoxymethyl)-1H-pyrazolo[3,4-d]pyrimidin-4-amine]	0	99		
Nc1cccc(Cn2nc(COc3ccccc3)c3c(N)ncnc32)c1 [Compound 11, 1-(3-Aminobenzyl)-3-(phenoxymethyl)-1H-pyrazolo[3,4-d]pyrimidin-4-amine]	0	89		
Nc1ccc(Cn2nc(COc3ccccc3)c3c(N)ncnc32)cc1 [Compound 12, 1-(4-Aminobenzyl)-3-(phenoxymethyl)-1H-pyrazolo[3,4-d]pyrimidin-4-pmine]	0	95		
Nc1ncnc2c1c(COc1ccccc1)nn2Cc1ccc(C(F)(F)F)cc1 [Compound 13, 3-(Phenoxymethyl)-1-(4-(trifluoromethyl)benzyl)-1H-pyrazolo[3,4-d]pyrimidin-4-amine]	68	86	73	CC50 at 3 days [1, 2]: > 100 µM; EC50 (ZIKV; [4]): 6.5 µM
CS(=O)(=O)c1ccc(Cn2nc(COc3ccccc3)c3c(N)ncnc32)cc1 [Compound 14, 1-(4-(Methylsulfonyl)Benzyl)-3-(phenoxymethyl)-1H-pyrazolo[3,4-d]pyrimidin-4-amine]	58	93	52	
N#Cc1ccc(Cn2nc(COc3ccccc3)c3c(N)ncnc32)cc1 [Compound 15, 4-((4-Amino-3-(phenoxymethyl)-1H-pyrazolo[3,4-d]pyrimidin-1-yl)methyl)benzonitrile]	37	99		
COC(=O)c1ccccc1Cn1nc(COc2ccccc2)c2c(N)ncnc21 [Compound 16, Methyl 2-((4-Amino-3-(phenoxymethyl)-1H-pyrazolo[3,4-d]pyrimidin-1-yl)methyl)benzoate]	0	95		
COC(=O)c1cccc(Cn2nc(COc3ccccc3)c3c(N)ncnc32)c1 [Compound 17, Methyl 3-((4-Amino-3-(phenoxymethyl)-1H-pyrazolo[3,4-d]pyrimidin-1-yl)methyl)benzoate]	88	38		
COC(=O)c1ccc(Cn2nc(COc3ccccc3)c3c(N)ncnc32)cc1 [Compound 18, Methyl 4-((4-amino-3-(phenoxymethyl)-1H-pyrazolo[3,4-d]pyrimidin-1-yl)methyl)benzoate]	6	95		
NC(=O)c1ccc(Cn2nc(COc3ccccc3)c3c(N)ncnc32)cc1 [Compound 19, 4-((4-Amino-3-(phenoxymethyl)-1H-pyrazolo[3,4-d]pyrimidin-1-yl)methyl)benzamide]	63	77	22	
Nc1ncnc2c1c(COc1ccccc1)nn2Cc1ccnc(Cl)c1 [Compound 20, 1-((2-Chloropyridin-4-yl)methyl)-3-(phenoxymethyl)-1H-pyrazolo[3,4-d]pyrimidin-4-amine]	88	39		
Nc1ncnc2c1c(COc1ccccc1)nn2Cc1ccc(Cl)nc1 [Compound 21, 1-((6-Chloropyridin-3-yl)methyl)-3-(phenoxymethyl)-1H-pyrazolo[3,4-d]pyrimidin-4-amine]	82	64		EC50 (luciferase reporter ZIKV; Huh-7, read-out: ZIKV Reporter Assay EC50): 3.5 µM; CC50 at 3 days [1]: 25 µM; inhibition at 8.5 µM (ZIKV): 74%; EC50 (ZIKV; Huh-7, read-out: Titer Reduction Assay EC50): 5.2 µM
Nc1cc(Cn2nc(COc3ccccc3)c3c(N)ncnc32)ccn1 [Compound 22, 1-((2-Aminopyridin-4-yl)methyl)-3-(phenoxymethyl)-1H-pyrazolo[3,4-d]pyrimidin-4-amine]	67	36		
Nc1ccc(Cn2nc(COc3ccccc3)c3c(N)ncnc32)cn1 [Compound 23, 1-((6-Aminopyridin-3-yl)methyl)-3-(phenoxymethyl)-1H-pyrazolo[3,4-d]pyrimidin-4-amine]	49	82	20	
CC(C)(C)OC(=O)Nc1cc(Cn2nc(COc3ccccc3)c3c(N)ncnc32)ccn1 [Compound 24, Tert-Butyl (4-((4-Amino-3-(phenoxymethyl)-1H-pyrazolo[3,4-d]pyrimidin-1-yl)methyl)pyridin-2-yl)carbamate]	62	36		
CC(C)(C)OC(=O)Nc1ccc(Cn2nc(COc3ccccc3)c3c(N)ncnc32)cn1 [Compound 25, Tert-Butyl (5-((4-Amino-3-(phenoxymethyl)-1H-pyrazolo[3,4-d]pyrimidin-1-yl)methyl)pyridin-2-yl)carbamate]	68	40		
Cc1ccccc1OCc1nn(Cc2ccc([N+](=O)[O-])cc2)c2ncnc(N)c12 [Compound 26, 1-(4-Nitrobenzyl)-3-((o-tolyloxy)methyl)-1H-pyrazolo[3,4-d]pyrimidin-4-amine]	60	77		
Cc1cccc(OCc2nn(Cc3ccc([N+](=O)[O-])cc3)c3ncnc(N)c23)c1 [Compound 27, 1-(4-Nitrobenzyl)-3-((m-tolyloxy)methyl)-1H-pyrazolo[3,4-d]pyrimidin-4-amine]	71	82	53	
Cc1ccc(OCc2nn(Cc3ccc([N+](=O)[O-])cc3)c3ncnc(N)c23)cc1 [Compound 28, 1-(4-Nitrobenzyl)-3-((p-tolyloxy)methyl)-1H-pyrazolo[3,4-d]pyrimidin-4-amine]	65	85	34	
Nc1ncnc2c1c(COc1ccccc1Cl)nn2Cc1ccc([N+](=O)[O-])cc1 [Compound 29, 3-((2-Chlorophenoxy)methyl)-1-(4-nitrobenzyl)-1H-pyrazolo[3,4-d]pyrimidin-4-amine]	34	94		
Nc1ncnc2c1c(COc1cccc(Cl)c1)nn2Cc1ccc([N+](=O)[O-])cc1 [Compound 30, 3-((3-Chlorophenoxy)methyl)-1-(4-nitrobenzyl)-1H-pyrazolo[3,4-d]pyrimidin-4-amine]	52	93	11	
Nc1ncnc2c1c(COc1ccc(Cl)cc1)nn2Cc1ccc([N+](=O)[O-])cc1 [Compound 31, 3-((4-Chlorophenoxy)methyl)-1-(4-nitrobenzyl)-1H-pyrazolo[3,4-d]pyrimidin-4-amine]	60	94	40	
